Reference: patent US3951949A, “Sulfates of hydroxyethyl starch” (Ajinomoto Co., Inc., priority 1973, dated 1976)

What was measured:
hyaluronidase = assay: Hyaluronidase inhibition activity; assay type: biochemical; conditions: 0.16% in phosphate buffer (PH=7.0) 0.25 ml; hyaluronic acid phosphate buffer (PH=5.3) 0.5 ml; bovine serum albumin buffer (PH=3.75) 5.0 ml; 38°C, 45 minutes
Experimental: Hyaluronidase inhibition activities of sulfate of hydroxyethyl starch were tested.
*0.16% Sulfate of hydroxyethyl starch phosphate buffer (PH=7.0) 0.25 ml;
hyaluronic acid phosphate buffer (PH=5.3) 0.5 ml; Bovine serum albumin
phosphate buffer (PH=3.75) 5.0 ml 38°C, 45 minutes.

pepsin = assay: Pepsin inhibition activity; assay type: biochemical; conditions: 0.30% aqueous solution (PH=1.8) 1 ml; 20 μg pepsin 1 ml; 1.5% bovine hemoglobin 1 ml; 30°C, 10 min
Experimental: The pepsin inhibition activity of the products of the invention was tested. The anti-ulcer activity of the compounds of the invention is evident.
*0.30% Sulfate of hydroxyethyl starch aqueous solution (PH=1.8) 1 ml; 20
μ g pepsin aqueous solution (PH=1.8) 1 ml; 1.5% Bovine hemoglobin

bovine serum albumin = bovine serum albumin (Bos taurus, UniProt P02769); assay: Inhibition of heat denaturation of serum protein (turbidity); conditions: 0.5 (W/V) % bovine serum albumin, test substance 3 × 10^-3 M per repeating unit, 1/15M phosphate buffer PH=5.4, 67°C 3 minutes
bovine serum albumin, sequence (P02769 25-607): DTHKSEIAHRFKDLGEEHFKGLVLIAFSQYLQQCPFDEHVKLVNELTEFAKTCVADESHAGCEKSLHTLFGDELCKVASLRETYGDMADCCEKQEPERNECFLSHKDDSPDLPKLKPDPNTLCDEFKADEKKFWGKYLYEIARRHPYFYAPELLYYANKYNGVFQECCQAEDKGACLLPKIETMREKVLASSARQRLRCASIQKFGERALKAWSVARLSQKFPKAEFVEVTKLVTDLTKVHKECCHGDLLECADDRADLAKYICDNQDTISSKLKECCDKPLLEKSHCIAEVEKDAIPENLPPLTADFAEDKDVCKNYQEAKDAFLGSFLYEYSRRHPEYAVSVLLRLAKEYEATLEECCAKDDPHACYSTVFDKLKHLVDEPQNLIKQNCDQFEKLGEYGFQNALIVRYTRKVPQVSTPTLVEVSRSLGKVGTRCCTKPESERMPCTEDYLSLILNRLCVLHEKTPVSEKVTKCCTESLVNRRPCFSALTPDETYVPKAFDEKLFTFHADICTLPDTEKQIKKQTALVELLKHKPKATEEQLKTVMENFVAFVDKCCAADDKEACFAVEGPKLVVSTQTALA
Experimental: Inhibition of heat denaturation of serum proteins is widely used for screening potential pharmaceutical agents for anti-inflammatory activity. The test is described in "Inhibition of Heat Denaturation of Serum Protein," Y. Mizushima, Arch. Int. Pharmacodyn.
In the test, the sodium salt of hydroxyethyl starch sulfate was dissolved in 1/15M phosphate suffer solution (PH=5.4) and to the solution the same phosphate buffer solution containing 1% bovine serum albumin was added in a 1:1 volume ratio. The solution was stirred at 25°C for 20 minutes and then stirred at 67°C for 3 minutes and cooled. The turbidity of the test solutions thus obtained was compared with that of a solution obtained by adding 1/15M phosphate buffer solution containing 1% bovine serum albumin to 1/15M phosphate buffer solution in a 1:1 volume ratio, and the inhibition degree of heat denaturation were calculated.

“Hydroxyethyl Starch [reference compound]” was tested, and the “Inhibition Ratio (hyaluronidase)” value (hyaluronidase) was 10% and the “Pepsin Inhibition Ratio” value (pepsin) was 1%.

With “Sodium Salt of Sulfate of Hydroxyethyl Starch [Example 1.6]” the “Inhibition Ratios of Heat Denaturation of Bovine Serum Albumin” value (“Inhibition Ratios” for short) (bovine serum albumin; 3 min, 3000 µM) was 97.9%.

For “Sodium Salt of Sulfate of Hydroxyethyl Starch [Example 6.3]”, the “Inhibition Ratios” value (bovine serum albumin; 3 min, 3000 µM) was 98.1%.

For “Sodium Salt of Sulfate of Hydroxyethyl Starch [Example 8.2]”, the “Inhibition Ratios” value (bovine serum albumin; 3 min, 3000 µM) was 98.1%.

“Sodium Salt of Sulfate of Hydroxyethyl Starch [Example 11.1]” was tested, and the “Inhibition Ratios” value (bovine serum albumin; 3 min, 3000 µM) was 97.6%.

With “Sodium Salt of Sulfate of Hydroxyethyl Starch [Example 14.5]” the “Inhibition Ratios” value (bovine serum albumin; 3 min, 3000 µM) was 98.8%.

“sodium salts of sulfate of hydroxyethyl starch [Ex. 6]” was tested, and the “Inhibition Ratio (hyaluronidase)” value (hyaluronidase) was 96%, the “Inhibition Ratios” value (bovine serum albumin) was 93.4% and the “Pepsin Inhibition Ratio” value (pepsin) was 83%.
